Measured values published in patent US9056843B2, “Trifluoromethyl-oxadiazole derivatives and their use in the treatment of disease” (NOVARTIS AG, priority 2011, dated 2015).

Columns and labels:
Format in all cases: biochemical
[1] = target: Human recombinant full length HDAC6 (Homo sapiens (Human), UniProt Q9UBN7); test: Test 4: HDAC6 assay; conditions: Test 4; substrate 5 μM acetyl-Gly-Ala-Lys(acetyl)-AMC
How it was run: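 Baculovirus-expressed full-length recombinant human HDAC6 with 5 μM acetyl-Gly-Ala-Lys(acetyl)-AMC substrate, developed with trypsin 15 min at room temperature.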

Human recombinant HDAC4 = Human recombinant HDAC4 (Homo sapiens (Human), UniProt P56524); test: Test 2: HDAC4 assay (fluorogenic substrate, 5 μM acetyl-Gly-Ala-Lys(ε-trifluoroacetyl)-AMC); conditions: Test 2 (values without asterisk)
How it was run: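 After the reaction, bovine trypsin (300 nM solution) was added for 15 min at RT to develop the signal; fluorescence read at 360/450 nm. No-enzyme background subtracted; IC50 from 4-parameter logistic fit of dose-response curves.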

[2] = target: Human recombinant full length HDAC1 (Homo sapiens (Human), UniProt Q13547); test: Test 3: HDAC1 assay; conditions: substrate 5 μM acetyl-Gly-Ala-Lys(acetyl)-AMC
How it was run: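 Baculovirus-expressed full-length human HDAC1 with 5 μM acetyl-Gly-Ala-Lys(acetyl)-AMC substrate, developed with trypsin 15 min at room temperature.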

Chain of Human recombinant full length HDAC6 (Q9UBN7 whole entry): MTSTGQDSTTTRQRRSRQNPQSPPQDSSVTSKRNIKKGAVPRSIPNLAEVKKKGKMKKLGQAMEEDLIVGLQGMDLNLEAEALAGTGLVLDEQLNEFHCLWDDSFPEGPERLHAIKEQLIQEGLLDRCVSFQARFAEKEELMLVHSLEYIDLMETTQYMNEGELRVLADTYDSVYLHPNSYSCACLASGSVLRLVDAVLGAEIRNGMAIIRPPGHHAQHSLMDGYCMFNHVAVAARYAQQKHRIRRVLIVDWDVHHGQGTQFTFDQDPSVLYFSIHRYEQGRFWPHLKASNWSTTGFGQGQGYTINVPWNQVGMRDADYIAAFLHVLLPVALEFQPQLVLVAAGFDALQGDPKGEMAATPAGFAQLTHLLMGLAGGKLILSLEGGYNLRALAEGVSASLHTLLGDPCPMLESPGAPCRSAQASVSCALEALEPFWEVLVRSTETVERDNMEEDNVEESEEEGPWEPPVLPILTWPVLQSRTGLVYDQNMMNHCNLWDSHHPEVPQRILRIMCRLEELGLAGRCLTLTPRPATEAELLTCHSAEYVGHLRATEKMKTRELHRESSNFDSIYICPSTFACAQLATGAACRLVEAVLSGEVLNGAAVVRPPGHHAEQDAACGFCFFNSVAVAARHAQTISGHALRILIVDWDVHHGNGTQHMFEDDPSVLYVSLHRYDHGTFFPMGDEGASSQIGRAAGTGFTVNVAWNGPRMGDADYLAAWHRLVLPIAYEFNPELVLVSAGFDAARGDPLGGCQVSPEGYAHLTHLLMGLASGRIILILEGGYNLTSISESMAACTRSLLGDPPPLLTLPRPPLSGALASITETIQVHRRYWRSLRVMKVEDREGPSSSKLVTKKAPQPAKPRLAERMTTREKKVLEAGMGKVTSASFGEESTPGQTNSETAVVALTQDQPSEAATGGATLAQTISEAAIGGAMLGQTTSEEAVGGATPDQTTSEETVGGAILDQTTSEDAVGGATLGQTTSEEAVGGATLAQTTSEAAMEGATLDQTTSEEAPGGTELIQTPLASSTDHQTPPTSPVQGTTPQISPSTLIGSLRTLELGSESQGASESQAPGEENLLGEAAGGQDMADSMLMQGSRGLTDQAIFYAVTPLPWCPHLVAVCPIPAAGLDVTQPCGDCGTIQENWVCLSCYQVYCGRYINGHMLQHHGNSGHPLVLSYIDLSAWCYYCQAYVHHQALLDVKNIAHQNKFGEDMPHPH
Chain of Human recombinant HDAC4 (P56524 2-1084): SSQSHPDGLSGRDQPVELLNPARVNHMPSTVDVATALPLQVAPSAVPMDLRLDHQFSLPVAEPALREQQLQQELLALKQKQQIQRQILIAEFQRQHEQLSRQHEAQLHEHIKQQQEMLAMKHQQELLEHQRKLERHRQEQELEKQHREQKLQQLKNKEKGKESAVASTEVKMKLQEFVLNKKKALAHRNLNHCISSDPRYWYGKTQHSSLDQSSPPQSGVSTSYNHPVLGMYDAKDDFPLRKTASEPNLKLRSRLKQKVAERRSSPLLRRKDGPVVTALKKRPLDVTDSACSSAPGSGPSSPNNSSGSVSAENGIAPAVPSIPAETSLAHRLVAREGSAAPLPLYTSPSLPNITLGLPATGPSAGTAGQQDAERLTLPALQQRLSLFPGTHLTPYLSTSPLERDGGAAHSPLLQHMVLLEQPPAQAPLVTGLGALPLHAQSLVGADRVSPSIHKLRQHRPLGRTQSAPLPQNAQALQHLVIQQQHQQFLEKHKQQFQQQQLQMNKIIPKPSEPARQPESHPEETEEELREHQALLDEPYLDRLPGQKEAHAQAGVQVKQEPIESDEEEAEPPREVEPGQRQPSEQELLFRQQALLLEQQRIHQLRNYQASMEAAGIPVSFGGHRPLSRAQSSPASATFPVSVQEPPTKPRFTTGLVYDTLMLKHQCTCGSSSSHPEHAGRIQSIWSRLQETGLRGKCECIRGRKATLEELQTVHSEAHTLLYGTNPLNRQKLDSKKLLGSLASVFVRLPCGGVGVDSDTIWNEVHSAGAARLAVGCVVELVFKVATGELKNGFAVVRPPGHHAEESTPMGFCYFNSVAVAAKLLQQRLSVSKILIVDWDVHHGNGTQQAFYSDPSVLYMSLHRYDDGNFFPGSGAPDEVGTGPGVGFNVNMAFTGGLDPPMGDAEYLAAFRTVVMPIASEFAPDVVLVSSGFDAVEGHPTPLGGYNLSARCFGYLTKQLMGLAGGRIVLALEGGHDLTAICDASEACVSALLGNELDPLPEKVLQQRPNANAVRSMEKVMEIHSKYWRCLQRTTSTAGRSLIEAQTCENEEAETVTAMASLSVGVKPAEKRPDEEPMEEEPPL
Chain of Human recombinant full length HDAC1 (Q13547 whole entry): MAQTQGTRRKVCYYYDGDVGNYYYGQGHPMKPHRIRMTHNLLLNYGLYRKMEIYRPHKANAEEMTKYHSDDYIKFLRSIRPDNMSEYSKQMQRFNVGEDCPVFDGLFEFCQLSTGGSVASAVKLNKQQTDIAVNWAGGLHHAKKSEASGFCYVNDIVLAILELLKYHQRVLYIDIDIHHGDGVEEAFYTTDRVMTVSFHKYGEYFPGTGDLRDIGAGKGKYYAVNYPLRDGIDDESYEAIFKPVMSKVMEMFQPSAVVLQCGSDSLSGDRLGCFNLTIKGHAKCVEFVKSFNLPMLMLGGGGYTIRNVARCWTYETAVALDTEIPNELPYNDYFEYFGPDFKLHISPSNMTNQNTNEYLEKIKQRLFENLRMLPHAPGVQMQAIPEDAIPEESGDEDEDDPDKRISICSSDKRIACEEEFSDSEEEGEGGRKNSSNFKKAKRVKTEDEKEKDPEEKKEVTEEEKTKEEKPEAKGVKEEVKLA

Structure (SMILES) | IC50 [1] [µM] | IC50 (Human recombinant HDAC4) [µM] | IC50 [2] [µM]
CC(C)N(C)C(=O)c1ccc(-c2noc(C(F)(F)F)n2)cc1 [Example 24, N-isopropyl-N-methyl-4-(5-(trifluoromethyl)-1,2,4-oxadiazol-3-yl)benzamide] | > 10 | 0.77 | > 10
CCN(C)C(=O)c1ccc(-c2noc(C(F)(F)F)n2)cc1 [Example 14, N-ethyl-N-methyl-4-(5-(trifluoromethyl)-1,2,4-oxadiazol-3-yl)benzamide] | > 10 | 0.9 | > 10
O=C(NC1CCCCC1O)c1ccc(-c2noc(C(F)(F)F)n2)cc1 (stereo not drawn) [Example 61, N-(2-hydroxycyclohexyl)-4-(5-(trifluoromethyl)-1,2,4-oxadiazol-3-yl)benzamide] | 7.1 | 0.79 | > 10
CN(C)C(=O)CNC(=O)c1ccc(-c2noc(C(F)(F)F)n2)cc1 [Example 52, N-(2-(dimethylamino)-2-oxoethyl)-4-(5-(trifluoromethyl)-1,2,4-oxadiazol-3-yl)benzamide] | > 10 | 3.2 | > 10
CC(=O)N1CCC(NC(=O)c2ccc(-c3noc(C(F)(F)F)n3)cc2)CC1 [Example 64, N-(1-acetylpiperidin-4-yl)-4-(5-(trifluoromethyl)-1,2,4-oxadiazol-3-yl)benzamide] | > 10 | 0.51 | > 10
CC(C)(C)OC(=O)N1CCN(C(=O)c2ccc(-c3noc(C(F)(F)F)n3)cc2)CC1 [Example 55, Tert-butyl 4-(4-(5-(trifluoromethyl)-1,2,4-oxadiazol-3-yl)benzoyl)piperazine-1-carboxylate] | > 10 | 2.8 | > 10

Continued, values first:

IC50 [1] [µM] | IC50 (Human recombinant HDAC4) [µM] | IC50 [2] [µM] | Structure (SMILES)
2.4 | 0.0084 | > 10 | CCN(C[C@@H](C)NC(=O)c1ccc(-c2noc(C(F)(F)F)n2)cc1F)C(C)C [Example 152, (R)—N-(1-(ethyl(isopropyl)amino)propan-2-yl)-2-fluoro-4-(5-(trifluoromethyl)-1,2,4-oxadiazol-3-yl)benzamide]
4.7 | 0.22 | > 10 | CN(C)C[C@@H](Cc1ccccc1)NC(=O)c1ccc(-c2noc(C(F)(F)F)n2)cc1F [Example 118, (R)—N-(1-(dimethylamino)-3-phenylpropan-2-yl)-2-fluoro-4-(5-(trifluoromethyl)-1,2,4-oxadiazol-3-yl)benzamide]
6.9 | 0.16 | > 10 | O=C(N[C@@H]1CCNC1)c1ccc(-c2noc(C(F)(F)F)n2)cc1F [Example 95, (R)-2-fluoro-N-(pyyrrolidin-3-yl)-4-(5-(trifluoromethyl)-1,2,4-oxadiazol-3-yl)benzamide]
1.8 | 0.36 | 8.8 | O=C(NCCNc1ccccc1)c1ccc(-c2noc(C(F)(F)F)n2)cc1 [Example 158, N-(2-(phenylamino)ethyl)-4-(5-(trifluoromethyl)-1,2,4-oxadiazol-3-yl)benzamide]
5.5 | 0.65 | > 10 | CC(C)CC(CO)NC(=O)c1ccc(-c2noc(C(F)(F)F)n2)cc1 (stereo not drawn) [Example 58, N-(1-hydroxy-4-methylpentan-2-yl)-4-(5-(trifluoromethyl)-1,2,4-oxadiazol-3-yl)benzamide]
4.9 | 0.19 | > 10 | CN(C)C[C@H](Cc1ccccc1)NC(=O)c1ccc(-c2noc(C(F)(F)F)n2)cc1 [Example 93, (S)—N-(1-(dimethylamino)-3-phenylpropan-2-yl)-4-(5-(trifluoromethyl)-1,2,4-oxadiazol-3-yl)benzamide]
> 10 | 0.52 | > 10 | CC(CN(C)C)N(C)C(=O)c1ccc(-c2noc(C(F)(F)F)n2)cc1 (stereo not drawn) [Example 94, N-(1-(dimethylamino)propan-2-yl)-N-methyl-4-(5-(trifluoromethyl)-1,2,4-oxadiazol-3-yl)benzamide]
